Measured values from US20130217664A1, “NOVEL COMPOUNDS USEFUL FOR THE TREATMENT OF DEGENERATIVE AND INFLAMMATORY DISEASES” (priority 2012, published 2013).

Experiments:
human JAK1 = biological target: T1, human JAK1 (Homo sapiens, UniProt P23458); test: JAK1 inhibition assay (polyGT substrate / Ulight-JAK1 peptide); format: biochemical; details: recombinant human JAK1 catalytic domain; polyGT or Ulight-JAK1 peptide assay
T1 construct: catalytic domain, amino acids 866-1154; catalog number PV4774; purchased Invitrogen PV4774
T1 sequence (P23458 866-1154): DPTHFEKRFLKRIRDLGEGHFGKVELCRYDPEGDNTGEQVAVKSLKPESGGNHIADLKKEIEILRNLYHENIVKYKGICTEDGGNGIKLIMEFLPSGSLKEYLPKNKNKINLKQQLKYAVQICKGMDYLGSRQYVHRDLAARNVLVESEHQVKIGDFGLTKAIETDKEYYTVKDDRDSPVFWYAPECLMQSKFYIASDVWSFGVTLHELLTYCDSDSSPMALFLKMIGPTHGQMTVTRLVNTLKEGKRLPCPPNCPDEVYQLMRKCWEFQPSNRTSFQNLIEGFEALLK
Method in brief: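 Signal scaled between vehicle and 10 μM staurosporine. Radiometric polyGT reactions ran 45 min at 30 °C, counted after phosphoric-acid stop. Ulight peptide reactions ran 60 min at room temperature, fluorescence read after adding Eu-PT66 detection mix with EDTA.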

human JAK2 = biological target: T2, human JAK2 (Homo sapiens, UniProt O60674); test: JAK2 inhibition assay (polyGT substrate / Ulight-JAK1 peptide); format: biochemical; details: recombinant human JAK2 catalytic domain; polyGT or Ulight-JAK1 peptide assay
T2 construct: catalytic domain (amino acids 808-1132; catalog number PV4210); GST; purchased Invitrogen PV4210
T2 sequence (O60674 808-1132): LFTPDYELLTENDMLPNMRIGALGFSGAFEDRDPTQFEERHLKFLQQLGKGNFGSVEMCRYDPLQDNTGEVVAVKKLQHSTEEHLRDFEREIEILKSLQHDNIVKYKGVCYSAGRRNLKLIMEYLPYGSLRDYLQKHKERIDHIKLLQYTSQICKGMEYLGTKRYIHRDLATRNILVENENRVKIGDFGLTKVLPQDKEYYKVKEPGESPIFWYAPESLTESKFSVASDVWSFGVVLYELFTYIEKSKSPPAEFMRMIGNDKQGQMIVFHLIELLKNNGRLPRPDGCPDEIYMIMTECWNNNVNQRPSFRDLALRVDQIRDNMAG
Method: 1.2 JAK2 Inhibition Assay
1.2.1 JAK2 Assay polyGT Substrate
0.025 mU of JAK2 is incubated with 2.5 μg polyGT substrate (Sigma catalog number P0275) in kinase reaction buffer (5 mM MOPS pH 7.5, 9 mM MgAc, 0.3 mM EDTA, 0.06% Brij and 0.6 mM DTT, 1 μM non-radioactive ATP, 0.25 μCi ^33P-gamma-ATP (GE Healthcare, catalog number AH9968) final concentrations) with or without 5 μL containing test compound or vehicle (DMSO, 1% final concentration), in a total volume of 25 μL, in a polypropylene 96-well plate (Greiner, V-bottom). After 90 min at 30° C., reactions are stopped by adding of 25 μL/well of 150 mM phosphoric acid. […] Plates are washed 6 times with 300 μL per well of a 75 mM phosphoric acid solution and the bottom of the plates is sealed. 40 μL/well of Microscint-20 is added, the top of the plates is sealed and readout is performed using the Topcount (Perkin Elmer). Kinase activity is calculated by subtracting counts per min (cpm) obtained in the presence of a positive control inhibitor (10 μM staurosporine) from cpm obtained in the presence of vehicle. The ability of a test compound to inhibit this activity is determined as:
Percentage inhibition=((cpm determined for sample with test compound present−cpm determined for sample with positive control inhibitor)divided by(cpm determined in the presence of vehicle−cpm determined for sample with positive control inhibitor))*100.
Dose dilution series are prepared for the compounds enabling the testing of dose-response effects in the JAK2 assay and the calculation of the IC50 for each compound.
1.2.2 JAK2 Ulight-JAK1 Peptide Assay
After 60 min at room temperature, reactions were stopped by adding 20 μL/well of detection mixture (1× detection buffer (Perkin Elmer, catalog number CR97-100C), 0.5 nM Europium-anti-phosphotyrosine (PT66) (Perkin Elmer, catalog number AD0068), 10 mM EDTA). […] Kinase activity was calculated by subtracting relative fluorescence units (RFU) obtained in the presence of a positive control inhibitor (10 μM staurosporine) from RFU obtained in the presence of vehicle. The ability of a test compound to inhibit this activity was determined as:
Percentage inhibition=((RFU determined for sample with test compound present−RFU determined for sample with positive control inhibitor)divided by(RFU determined in the presence of vehicle−RFU determined for sample with positive control inhibitor))*100.
Dose dilution series are prepared for compound enabling the testing of dose-response effects in the JAK2 assay and the calculation of the IC50 for the compound. Each compound is routinely tested at concentration of 20 μM followed by a 1/5 serial dilution, 10 points in a final concentration of 1% DMSO. […] The data are expressed as the average IC50 from the assays±standard error of the mean.

An IC50 (human JAK1) of 501 to 1000 nM and an IC50 (human JAK2) greater than 1000 nM were found for `CCc1ccccc1Oc1cc2c(cn1)ncn2C` [Compound 298, 6-(2-Ethyl-phenoxy)-1-methyl-1H-imidazo[4,5-c]pyridine] in this work.

An IC50 (human JAK1) of 101 to 500 nM and an IC50 (human JAK2) greater than 1000 nM were found for `CCc1cc(C(=O)N(C)C)ccc1N(C)c1cc2c(cn1)ncn2C` [Compound 118, 3-ethyl-N,N-dimethyl-4-(methyl(1-methyl-1H-imidazo[4,5-c]pyridin-6-yl)amino)benzamide] in this work.

An IC50 (human JAK1) greater than 1000 nM and an IC50 (human JAK2) greater than 1000 nM were found for `CCc1cc(C(=O)N2CCC(OC)CC2)ccc1N(C)c1cc2c(cn1)ncn2C` [Compound 112, (3-ethyl-4-(methyl(1-methyl-1H-imidazo[4,5-c]pyridin-6-yl)amino)phenyl)(4-methoxypiperidin-1-yl)methanone] in this work.

An IC50 (human JAK1) greater than 1000 nM and an IC50 (human JAK2) greater than 1000 nM were found for `Cc1c(O)cccc1N(C)c1cc2c(cn1)ncn2C` [Compound 46, 2-methyl-3-(methyl(1-methyl-1H-imidazo[4,5-c]pyridin-6-yl)amino)phenol] in this work.

An IC50 (human JAK1) of 501 to 1000 nM and an IC50 (human JAK2) greater than 1000 nM were found for `COc1ccc(COc2cccc(N(C)c3cc4c(cn3)ncn4C)c2C)cc1` [Compound 44, N-(3-(4-methoxybenzyloxy)-2-methylphenyl)-N,1-dimethyl-1H-imidazo[4,5-c]pyridin-6-amine] in this work.

An IC50 (human JAK1) of 101 to 500 nM and an IC50 (human JAK2) greater than 1000 nM were found for `CCc1ccc(C(N)=O)cc1N(C)c1cc2c(cn1)ncn2C` [Compound 108, 4-ethyl-3-(methyl(1-methyl-1H-imidazo[4,5-c]pyridin-6-yl)amino)benzamide] in this work.

An IC50 (human JAK1) of 101 to 500 nM and an IC50 (human JAK2) greater than 1000 nM were found for `CCc1ccncc1N(C)c1cc2c(cn1)ncn2C` [Compound 78, N-(4-ethylpyridin-3-yl)-N,1-dimethyl-1H-imidazo[4,5-c]pyridin-6-amine] in this work.

An IC50 (human JAK1) of 101 to 500 nM and an IC50 (human JAK2) greater than 1000 nM were found for `CCc1ccc(COC)cc1N(C)c1cc2c(cn1)ncn2C` [Compound 122, N-(2-Ethyl-5-(methoxymethyl)phenyl)-N,1-dimethyl-1H-imidazo[4,5-c]pyridin-6-amine] in this work.

An IC50 (human JAK1) of 501 to 1000 nM and an IC50 (human JAK2) greater than 1000 nM were found for `CC(C)CCOc1ccc(N(C)c2cc3c(cn2)ncn3C)cc1` [Compound 21, N-(4-(isopentyloxy)phenyl)-N,1-dimethyl-1H-imidazo[4,5-c]pyridin-6-amine] in this work.

An IC50 (human JAK1) of 501 to 1000 nM and an IC50 (human JAK2) of 501 to 1000 nM were found for `Cc1c(OCc2ccccc2)cccc1N(C)c1cc2c(cn1)ncn2C` [Compound 75, N-(3-(benzyloxy)-2-methylphenyl)-N,1-dimethyl-1H-imidazo[4,5-c]pyridin-6-amine] in this work.

An IC50 (human JAK1) of 501 to 1000 nM and an IC50 (human JAK2) greater than 1000 nM were found for `Cc1cc(OCc2ccc(Cl)cc2)ccc1N(C)c1cc2c(cn1)ncn2C` [Compound 54, N-(4-(4-chlorobenzyloxy)-2-methylphenyl)-N,1-dimethyl-1H-imidazo[4,5-c]pyridin-6-amine] in this work.

An IC50 (human JAK1) of 101 to 500 nM and an IC50 (human JAK2) greater than 1000 nM were found for `CCc1cc(C(=O)N2CCOCC2)ccc1N(C)c1cc2c(cn1)ncn2C` [Compound 117, (3-ethyl-4-(methyl(1-methyl-1H-imidazo[4,5-c]pyridin-6-yl)amino)phenyl)(morpho-lino)methanone] in this work.

An IC50 (human JAK1) greater than 1000 nM and an IC50 (human JAK2) greater than 1000 nM were found for `CCN(c1ccc2sc(C)nc2c1)c1cc2c(cn1)ncn2C` [Compound 10, N-ethyl-2-methyl-N-(1-methyl-1H-imidazo[4,5-c]pyridin-6-yl)benzo[d]thiazol-5-amine] in this work.

An IC50 (human JAK1) greater than 1000 nM and an IC50 (human JAK2) greater than 1000 nM were found for `CCc1ncccc1N(C)c1cc2c(cn1)ncn2C` [Compound 79, N-(2-ethylpyridin-3-yl)-N,1-dimethyl-1H-imidazo[4,5-c]pyridin-6-amine] in this work.

An IC50 (human JAK1) of 101 to 500 nM and an IC50 (human JAK2) greater than 1000 nM were found for `CCc1ccc(C(=O)NCc2ccccn2)cc1N(C)c1cc2c(cn1)ncn2C` [Compound 125, 4-ethyl-3-(methyl(1-methyl-1H-imidazo[4,5-c]pyridin-6-yl)amino)-N-(pyridin-2-ylmethyl)benzamide] in this work.

An IC50 (human JAK1) of 101 to 500 nM and an IC50 (human JAK2) greater than 1000 nM were found for `Cc1c(OCc2cccnc2)cccc1N(C)c1cc2c(cn1)ncn2C` [Compound 69, N,1-dimethyl-N-(2-methyl-3-(pyridin-3-ylmethoxy)phenyl)-1H-imidazo[4,5-c]pyridin-6-amine] in this work.

An IC50 (human JAK1) of 101 to 500 nM and an IC50 (human JAK2) greater than 1000 nM were found for `CN(c1ccc(OCCO)cc1)c1cc2c(cn1)ncn2C` [Compound 19, 2-(4-(methyl(1-methyl-1H-imidazo[4,5-c]pyridin-6-yl)amino)phenoxy)ethanol] in this work.

An IC50 (human JAK1) of 501 to 1000 nM and an IC50 (human JAK2) greater than 1000 nM were found for `CCN(c1ccc(CO)cc1)c1cc2c(cn1)ncn2C` [Compound 13, (4-(ethyl(1-methyl-1H-imidazo[4,5-c]pyridin-6-yl)amino)phenyl)MeOH] in this work.

An IC50 (human JAK1) of 501 to 1000 nM and an IC50 (human JAK2) greater than 1000 nM were found for `CCN(c1ccc2oc(C)nc2c1)c1cc2c(cn1)ncn2C` [Compound 6, N-ethyl-2-methyl-N-(1-methyl-1H-imidazo[4,5-c]pyridin-6-yl)benzo[d]oxazol-5-amine] in this work.

An IC50 (human JAK1) of 101 to 500 nM and an IC50 (human JAK2) greater than 1000 nM were found for `CCc1ccc(C(=O)N(C)C)cc1N(C)c1cc2c(cn1)ncn2C` [Compound 87, 4-Ethyl-N,N-dimethyl-3-(methyl(1-methyl-1H-imidazo[4,5-c]pyridin-6-yl)amino)benzamide] in this work.

An IC50 (human JAK1) greater than 1000 nM and an IC50 (human JAK2) greater than 1000 nM were found for `CCc1cc(C(=O)N2CC(C)(C)C2)ccc1N(C)c1cc2c(cn1)ncn2C` [Compound 113, (3,3-dimethylazetidin-1-yl)(3-ethyl-4-(methyl(1-methyl-1H-imidazo[4,5-c]pyridin-6-yl)amino)phenyl)methanone] in this work.

An IC50 (human JAK1) of 101 to 500 nM and an IC50 (human JAK2) greater than 1000 nM were found for `Cc1c(OCCCC#N)cccc1N(C)c1cc2c(cn1)ncn2C` [Compound 66, 4-(2-methyl-3-(methyl(1-methyl-1H-imidazo[4,5-c]pyridin-6-yl)amino)phenoxy)butane nitrile] in this work.

An IC50 (human JAK1) greater than 1000 nM and an IC50 (human JAK2) greater than 1000 nM were found for `CCN(c1ccc2ocnc2c1)c1cc2c(cn1)ncn2C` [Compound 3, N-ethyl-N-(1-methyl-1H-imidazo[4,5-c]pyridin-6-yl)benzo[d]oxazol-5-amine] in this work.

An IC50 (human JAK1) of 101 to 500 nM and an IC50 (human JAK2) greater than 1000 nM were found for `Cc1c(Oc2ccc(C#N)nc2)cccc1N(C)c1cc2c(cn1)ncn2C` [Compound 90, 5-(2-methyl-3-(methyl(1-methyl-1H-imidazo[4,5-c]pyridin-6-yl)amino)phenoxy)picolino-nitrile] in this work.

An IC50 (human JAK1) of 101 to 500 nM and an IC50 (human JAK2) greater than 1000 nM were found for `Cc1c(OCc2ccc(C#N)nc2)cccc1N(C)c1cc2c(cn1)ncn2C` [Compound 97, 5-((2-methyl-3-(methyl(1-methyl-1H-imidazo[4,5-c]pyridin-6-yl)amino)phenoxy)methyl) picolinonitrile] in this work.

An IC50 (human JAK1) greater than 1000 nM and an IC50 (human JAK2) greater than 1000 nM were found for `CCc1c(C(=O)OC)cccc1N(C)c1cc2c(cn1)ncn2C` [Compound 96, methyl 2-ethyl-3-(methyl(1-methyl-1H-imidazo[4,5-c]pyridin-6-yl)amino)benzate] in this work.

An IC50 (human JAK1) of 101 to 500 nM and an IC50 (human JAK2) greater than 1000 nM were found for `CCc1ccc(C(=O)NC)cc1N(C)c1cc2c(cn1)ncn2C` [Compound 128, 4-ethyl-N-methyl-3-(methyl(1-methyl-1H-imidazo[4,5-c]pyridin-6-yl)amino)benzamide] in this work.

An IC50 (human JAK1) of 501 to 1000 nM and an IC50 (human JAK2) greater than 1000 nM were found for `CCOCCOc1ccc(N(C)c2cc3c(cn2)ncn3C)cc1` [Compound 23, N-(4-(2-ethoxyethoxy)phenyl)-N,1-dimethyl-1H-imidazo[4,5-c]pyridin-6-amine] in this work.

An IC50 (human JAK1) of 101 to 500 nM and an IC50 (human JAK2) greater than 1000 nM were found for `CN(c1ccc(OCC2CC2)cc1)c1cc2c(cn1)ncn2C` [Compound 24, N-(4-(cyclopropylmethoxy)phen-yl)-N,1-dimethyl-1H-imidazo[4,5-c]pyridin-6-amine] in this work.

An IC50 (human JAK1) of 101 to 500 nM and an IC50 (human JAK2) of 501 to 1000 nM were found for `CCCOc1ccc(N(C)c2cc3c(cn2)ncn3C)cc1` [Compound 22, N,1-dimethyl-N-(4-propoxyphenyl)-1H-imidazo[4,5-c]pyridin-6-amine] in this work.

An IC50 (human JAK1) greater than 1000 nM and an IC50 (human JAK2) greater than 1000 nM were found for `CN(c1cc2c(cn1)ncn2C)c1ccccc1C#N` [Compound 41, 2-(Methyl(1-methyl-1H-imidazo[4,5-c]pyridin-6-yl)amino)benzonitrile] in this work.
